From patent US5420276A, “Analogs of oxetanyl purines and pyrimidines” (Abbott Laboratories, priority 1993, dated 1995)
In brackets after ≈: the same amount, converted by molar mass.

Legend:
[1] = MTT test compound cytotoxicity in human foreskin fibroblasts; format: cell-based; conditions: hff cells, read-out: MTT assay (Percent of control)
Method: (§1) For the plaque reduction assay, sixth to twelfth passage human foreskin fibroblasts were seeded in wells of 12-well tissue culture plates and incubated at 37° C. in a humidified atmosphere containing 2% CO2 in air. Subconfluent HFF were rinsed with MEM and exposed to 0.5 ml/well of a suspension of VZV diluted in MEM+2% FBS for 2 hours at 37° C. Following the virus adsorption period, the inocula were removed and the infected cell layers were rinsed with MEM. Triplicate VZV-infected cell culture wells were treated with 1.0 ml of each concentration of test compound (in MEM+2% FBS). Six untreated virus-infected cell cultures and triplicate untreated uninfected cell cultures were fed with 1.0 ml of MEM+2% FBS to serve as controls. Wells containing uninfected HFF were treated with each concentration of test compound to monitor the test compound cytotoxicity. The 12-well plates were incubated at 37° C. in the CO2 incubator. At 48 hours post-virus infection (p.i.), fluids in all plate wells were replaced with fresh test compound and/or culture medium.
The test compound cytotoxicity control cultures were examined microscopically for gross morphologic changes, then treated with MTT and 30% SDS. The blue color of the MTT formazan was measured spectrophotometrically at 570 nm. Test compound cytotoxicity was determined by comparing the absorbance (O.D.) of each test compound control with the mean O.D. of the cell control cultures and expressed as percent of control.

HSV-2 (MS) = assay: CPE inhibition assay (MTT), HSV-2 (MS) in Vero cells; format: cell-based, herpes simplex virus type 2; conditions: Human alphaherpesvirus 2, inhibited CPE by 50%
Method: (§2) Vero cells were pregrown as monolayers in wells of COSTAR 96-well tissue culture plates using suitable cell culture media. Stock viruses were pretitered according to the method of Reed and Muench (Amer. J. Hyg. 27 493 (1938)) and diluted in cell culture medium to yield 32 CCID50 (cell culture infectious dose, 50%) units per 0.1 mL. Antiviral assays were designed to test six concentrations of each compound, from cytotoxic to noncytotoxic levels, in triplicate against each of the challenge viruses in microtiter plate wells containing cell monolayers. To each of the replicate cell cultures were added 0.1 mL of the test-compound solution and 0.1 mL of virus suspension. Two compounds were evaluated per plate. The following controls were included:
(§3) (1) Cell controls containing cells+medium;
(§4) (2) Untreated, virus-infected cell controls;
(§5) (3) Test-compound cytotoxicity controls containing uninfected, test-compound treated cells;
(§6) (4) Test-compound color controls-test-compound+medium (no cells); and
(§7) (5) Reagent (experiment medium) controls-medium only (no cells).
The covered plates were incubated at 37° C. in a humidified atmosphere containing 2% CO2. When cytopathogenic effect (CPE) in untreated virus control wells reached 100%, 20 μL of 3-(4,5-dimethyl-thiazol-2-yl)-2,5-diphenyl tetrazolium bromide (MTT) (dissolved in PBS at 5 mg/mL) was pipetted into each of the plate wells. The plates were incubated at 37° C. for six hours; then 40 μL of 30% SDS (in 0.02N HCl) was added to each well. After overnight incubation at 37° C., the blue color or the MTT formazan was measured spectrophotometrically at 570 nm. The optical density (OD) value of each culture is a function of the amount of formazan produced which is proportional to the number of viable cells. A computer program was utilized to calculate the percent (CPE) reciprocal of % CPE reduction) of the virus-infected wells and % cell viability of the uninfected test-compound control wells. […]

[2] = system: Varicella-Zoster Virus (VZV) clinical isolate DM625; assay: VZV plaque reduction assay; format: cell-based; conditions: Human alphaherpesvirus 3, 144 h, VZV in HFF; for EC50: minimum concentration required to inhibit plaque formation by 50%, read-out: MIC50
Method: The compounds of the invention were evaluated for selective activity against varicella zoster virus (VCV) utilizing a plaque reduction assay procedure. The challenge virus was a clinical isolate designated DM625, obtained from Dr. Richard Whitley of the University of Alabama Hospitals, Birmingham, Ala. The virus had been passaged and titrated in cultures of human foreskin fibroblasts (HFF).
as §1
Six days p.i., the VZV plaques were counted (unstained, low magnification).The effect of each concentration of test compound on plaque formation was determined by comparing the mean number of plaques in the replicate test compound-treated cultures with the mean plaque counts of the untreated virus control cultures.
The MIC50 value is the minimum concentration of test Compound required to inhibit plaque formation by 50%.

HSV-1 (E-377) = assay: CPE inhibition assay (MTT), HSV-1 (E-377) in Vero cells; format: cell-based, herpes simplex virus type 1; conditions: Human alphaherpesvirus 1, inhibited CPE by 50%
Method: as §2, §3, §4, §5, §6, §7
The covered plates were incubated at 37° C. in a humidified atmosphere containing 2% CO2. When cytopathogenic effect (CPE) in untreated virus control wells reached 100%, 20 μL of 3-(4,5-dimethyl-thiazol-2-yl)-2,5-diphenyl tetrazolium bromide (MTT) (dissolved in PBS at 5 mg/mL) was pipetted into each of the plate wells. The plates were incubated at 37° C. for six hours; then 40 μL of 30% SDS (in 0.02N HCl) was added to each well. After overnight incubation at 37° C., the blue color or the MTT formazan was measured spectrophotometrically at 570 nm. The optical density (OD) value of each culture is a function of the amount of formazan produced which is proportional to the number of viable cells. A computer program was utilized to calculate the percent (CPE) reciprocal of % CPE reduction) of the virus-infected wells and % cell viability of the uninfected test-compound control wells.
The IC50 value is the minimum test-compound concentration (μg/mL) that inhibited CPE by 50% calculated by using a regression analysis program for semilog curve fitting. The TC25 value is the minimum test-compound concentration (μg/mL) that reduced cell viability by 25%.

Vero cells = assay: MTT cell viability of uninfected test-compound control Vero cells; format: cell-based, African green monkey; conditions: reduced cell viability by 25%, HSV-1 (E-377) line
Method: as §2, §5
The covered plates were incubated at 37° C. in a humidified atmosphere containing 2% CO2. When cytopathogenic effect (CPE) in untreated virus control wells reached 100%, 20 μL of 3-(4,5-dimethyl-thiazol-2-yl)-2,5-diphenyl tetrazolium bromide (MTT) (dissolved in PBS at 5 mg/mL) was pipetted into each of the plate wells. The plates were incubated at 37° C. for six hours; then 40 μL of 30% SDS (in 0.02N HCl) was added to each well. After overnight incubation at 37° C., the blue color or the MTT formazan was measured spectrophotometrically at 570 nm. […]

[3] = system: Herpes Simplex Virus Type 1; assay: Neutral red dye uptake assay for antiviral activity, HSV-1 in Vero cells; format: cell-based; conditions: Human alphaherpesvirus 1, HSV-1, Vero, concentration at which 50% CPE would be observed, read-out: MIC50
Method: (§8) Vero cell monolayers were harvested by trypsinization. The number of viable cells per ml. was determined by staining an aliquot with trypan blue and counting in a hemocytometer. Cell densities were adjusted in growth medium to contain 4×10^5 cells/mi. 96-well sterile tissue culture plates were seeded with 100 μl/well of the adjusted cell suspensions, i.e., 4×10^4 cells/well. Seeded plates were incubated overnight at 37° C. with CO2.
(§9) After overnight incubation, monolayers were approximately confluent. The growth medium was removed and the monolayers in each cell were infected with 100 μl of virus diluted in maintenance medium to produce approximately 90% cytopathogenic effect (CPE) after 2 to 3 days incubation. The virus was allowed to adsorb for 1 hour at 37° C. with 4 to 6% CO2. Controls for cell growth were overlayed with virus-free maintenance medium. The maintenance medium containing residual virus was removed.
(§10) The test compounds were dissolved and/or diluted in maintenance medium to the concentration desired for testing and were added to the wells of the plate. Aliquots (100 μl ) of each concentration were added to wells in replicate (duplicate or triplicate). Controls for virus activity were overlayed with drug-free maintenance medium. Replicate wells containing only maintenance medium served as controls for background absorbance levels.
After incubation, the medium was removed from all the wells. 100 μl of neutral red solution was added to each well and the plate was incubated at 37° C. without CO2 for 2 hours. After the 2 hour incubation, the excess neutral red solution was removed. […]
The neutral red stain taken up by the viable cells was extracted by adding 100 μl/well of acidified methanol, pH 1.0. […] The amount of neutral red stain extracted into the methanol was quantified by determining the absorbance at a wavelength of 540 nm.
The percent CPE in virus controls was determined by the following formula: [formula]
The percent CPE in cells infected with virus and treated with the test compound was determined by the following formula: [formula] […]

in vitro = format: cell-based, African green monkey; conditions: monkey, vero cells
Method: as §8, §9, §10
After incubation, the medium was removed from all the wells. 100 μl of neutral red solution was added to each well and the plate was incubated at 37° C. without CO2 for 2 hours. After the 2 hour incubation, the excess neutral red solution was removed. The plates were washed with 100 μl/well of PBS, pH 7.2 and then the PBS was removed.
The neutral red stain taken up by the viable cells was extracted by adding 100 μl/well of acidified methanol, pH 1.0. (The acidified methanol fixed the cells to the well). The plate was allowed to stand at room temperature for at least 15 minutes to allow for maximum extraction. The amount of neutral red stain extracted into the methanol was quantified by determining the absorbance at a wavelength of 540 nm. […]

| IC50 (HSV-2 (MS)) | EC50 [2] | IC50 (HSV-1 (E-377)) | SMILES | viability at 1 µM [1] | viability at 3.2 µM [1] | viability at 10 µM [1] | viability at 32 µM [1] | viability at 100 µM [1] | viability at 320 µM [1] | viability at 1000 µM [1] | inhibition at 0.032 µM [2] | inhibition at 0.1 µM [2] | inhibition at 0.32 µM [2] | inhibition at 1 µM [2] | inhibition at 3.2 µM [2] | inhibition at 10 µM [2] | inhibition at 32 µM [2] | inhibition at 100 µM [2] | inhibition at 320 µM [2] | inhibition at 1000 µM [2] | also measured |
| --- | --- | --- | --- | --- | --- | --- | --- | --- | --- | --- | --- | --- | --- | --- | --- | --- | --- | --- | --- | --- | --- |
| 35.3 µg/mL (≈ 99.7 µM) | 0.1 µg/mL (≈ 0.282 µM) | 0.05 µg/mL (≈ 0.141 µM) | O=c1[nH]c(=O)n([C@@H]2O[C@H](CO)[C@H]2CO)cc1I [Example 42, 1-([2'R, 3'R, 4'S]-3',4'-Bis(hydroxymethyl)-2'-oxetanyl)-5-iodouracil] | 93% | 94% | 80% | 88% | 82% | 79% | 68% | 7% | 2% | 54% | 76% | 98% | 99% | 100% | 100% | 99.6% | 100% | – |
| 141 µg/mL (≈ 459 µM) | 0.17 µg/mL (≈ 0.554 µM) | 0.7 µg/mL (≈ 2.28 µM) | O=c1[nH]c(=O)n([C@@H]2O[C@H](CO)[C@H]2CO)cc1Br [Example 43, 1-([2'R, 3'R, 4'S]-3',4'-Bis(hydroxymethyl)-2'-oxetanyl)-5-bromouracil] | 100% | 93% | 99% | 93% | 100% | 88% | 82% | 1% | 12% | 41% | 75% | 98% | 99% | 99% | 100% | 100% | 100% | viability at 0.032 µM ([1]; 0.032 μM): 100%; viability at 0.1 µM [1]: 100%; viability at 0.32 µM [1]: 96% |
| – | 0.01 µg/mL (≈ 0.0263 µM) | 0.67 µg/mL (≈ 1.76 µM) | O=c1[nH]c(=O)n([C@@H]2O[C@H](CO)[C@H]2CO)cc1C=CI [Example 49, 1([2'R, 3'R, 4'S]-3',4'-Bis(hydroxymethyl)-2'-oxetanyl)-5-(2-iodo-1-vinyl)uracil] | 100% | – | – | – | – | – | – | 97% | 98% | 98% | 99% | – | – | – | – | – | – | viability at 0.1 µM [1]: 100%; viability at 0.32 µM [1]: 100%; inhibition at 0.0032 µM ([2]; 0.0032 μM): 18%; inhibition at 0.01 µM ([2]; 0.01 μM): 49%; TC25 (Vero cells): > 380 µg/mL |
| 6.3 µg/mL (≈ 24.8 µM) | – | – | C=Cc1cn([C@@H]2O[C@H](CO)[C@H]2CO)c(=O)[nH]c1=O [Example 61, 1-([2'R, 3'R, 4'S]-3',4'-Bis(hydroxymethyl)-2'-oxetanyl)-5-vinyluracil] | – | – | – | – | – | – | – | – | – | – | – | – | – | – | – | – | – | EC50 [3]: 0.02 µg/mL (≈ 0.0787 µM); CC50 (in vitro): > 1000 µg/mL |
